{"source": "patent US5789382A", "about": "“Retro-peptide fibroblast growth factor which blocks FGF receptor” (Georgetown University, priority 1993, dated 1998)", "key": {"human SW-13 cells": {"system": "human SW-13 cells", "assay": "growth assay with human SW-13 cells (FIG. 2, FIG. 4)", "assay_type": "cell-based", "settings": "for inhibition of SW-13 cell growth: amounts added as high as 1,000 μg/ml", "excerpt": "FIG. 2 illustrates the results of a growth assay conducted with both a peptide of the present invention (retro-peptide) and the antero-peptide sequence thereof.\nFIG. 2 illustrates that both the antero-peptide and the retro-peptide are inhibitory in a growth assay with human SW-13 cells.\nFIG. 4 illustrates the difference in effect on SW-13 cell growth between a 10-mer peptide sequence of the formula (SEQ ID NO:6): […]\nAs may be seen from FIG. 4, the 15-mer sequence has an inhibitive effect on SW-13 cell growth with increasing amount added in μg/ml. This effect becomes almost completely inhibiting in amounts added of about 100 μg/ml and greater."}, "human melanoma": {"system": "human melanoma", "assay": "growth inhibition of human melanoma", "assay_type": "cell-based", "settings": "same concentration as in the SW-13 assay"}, "human rhabdomyosarcoma [1]": {"system": "human rhabdomyosarcoma", "assay": "growth inhibition of human rhabdomyosarcoma (in vitro)", "assay_type": "cell-based", "settings": "same concentration as in the SW-13 assay"}, "normal human cells": {"system": "normal human cells", "assay": "FGF-stimulated growth of normal human cells", "assay_type": "cell-based"}, "SW-13 cells": {"system": "SW-13 cells", "assay": "FGF-stimulated colony formation of SW-13 cells (FIG. 3)", "assay_type": "cell-based, human", "excerpt": "FIG. 3 illustrates the competitive mechanism of FGF-dependent growth inhibition by a retro-peptide of the present invention.\n(§1) FIG. 3 illustrates the competitive mechanism of FGF-dependent growth inhibition by the retro-peptide of the present invention. […] This clearly establishes the specificity of the FGF-receptor inhibition by the present retro-peptide.\nIn FIG. 3, \"Co\" refers to a control, while \"A\" refers to the antero-peptideand \"R\" refers to the retro-peptide."}, "breast cancer cells": {"system": "breast cancer cells", "assay": "growth of cell lines growing independently from FGF", "assay_type": "cell-based", "settings": "such as breast cancer cells", "excerpt": "as §1"}, "human rhabdomyosarcoma [2]": {"system": "human rhabdomyosarcoma", "assay": "human rhabdomyosarcoma xenograft in athymic nude mice (FIG. 6)", "assay_type": "in vivo", "description": "Animal studies with human rhabdomyosarcoma growing in athymic nude mice were carried out with the 15 mer peptide. Tumors were allowed to grow subcutaneously and peptide (25 mg/kg of body weight) dissolved in saline was injected for eight days daily intraperitoneally. After three weeks the tumor size in a control group treated only with saline solution was 26.6±6.8 mm^2. The tumor size in the peptide-treated animals was 5.4±1.6 mm^2. […] This is illustrated in FIG. 6.\n(§2) Human tumor cells (1 million per mouse) were inoculated in 0.1 ml of saline solution into a mammary fat pad of each mouse. Each group of treatment consisted of 10 animals. One day after the inoculation of tumor cells the animals were treated with a single daily intraperitoneal injection of saline solution (control group) or with the 15-mer retropeptide dissolved in saline solution at a dose of 25 mg per kg body weight (peptide group) or 25 mg per kg body weight of pentosanpolysulfate (pentosan polysulfate group). The treatment with peptide was continued for 8 days due to a currently still limited supply of the peptide. The pentosanpolysulfate treatment was continued throughout the whole observation period.\n(§3) The mean ± standard error tumor size is 26.6±6.8 mm^2 (control group) and […] (peptide group). This difference is highly significant (p<0.003) as tested by student's t-test."}, "[3]": {"assay": "tolerability in tumor-bearing mice", "assay_type": "in vivo, athymic nude mice", "settings": "25 mg/kg daily i.p. for 8 days", "description": "as §2, §3"}, "water solubility": {"assay": "water solubility", "assay_type": "physicochemical", "description": "The present retro-peptide is water-soluble and is administered by any route, especially intravenously, subcutaneously, intraperitonially, intramuscularly, orally and rectally. The peptide may be conveniently administered in dextrose 5% saline or in saline solution."}}, "note": "Ends that are not written are not given here."}
{"substance": "NH2 --YRSRK--YSSWY-CO2 H [10-mer sequence, reference compound]", "values": [{"measurement": "inhibition of SW-13 cell growth", "setting": "human SW-13 cells; FIG. 4", "value": "essentially no such inhibition"}, {"measurement": "inhibition of SW-13 cell growth", "setting": "human SW-13 cells; FIG. 4, listed as 10-mer", "value": "loss of activity"}]}
{"substance": "NH2 --YRSRK--YSSWY-VALKR--CO2 H [15-mer sequence]", "values": [{"measurement": "amount added at which inhibition of SW-13 cell growth becomes almost complete", "setting": "human SW-13 cells; FIG. 4, about 100 μg/ml and greater", "value": "about 100 μg/ml"}]}
{"substance": "RKLAVYWSSYKRSRY [retro-peptide, NH2 --RKLAV--YWSSY--KRSRY--COOH]", "values": [{"measurement": "inhibition in growth assay with human SW-13 cells", "setting": "human SW-13 cells; FIG. 2", "value": "inhibitory"}, {"measurement": "potency in SW-13 growth assay relative to the antero-peptide", "setting": "human SW-13 cells; FIG. 2, retro-peptide versus antero-peptide", "value": "much more potent"}, {"measurement": "effectiveness against human melanoma", "setting": "human melanoma", "value": "effective at the same concentration"}, {"measurement": "effectiveness against human rhabdomyosarcoma", "setting": "human rhabdomyosarcoma [1]", "value": "effective at the same concentration"}, {"measurement": "FGF-stimulated growth of normal human cells", "setting": "normal human cells", "value": "blocks FGF-stimulated growth"}, {"measurement": "dose-response curve of FGF-stimulated colony formation of SW-13 cells", "setting": "SW-13 cells; competitive mechanism", "value": "shifted to the right without affecting the maximum achieved"}, {"measurement": "inhibition of cell lines growing independently from FGF", "setting": "breast cancer cells", "value": "neither of the antero-peptide nor retro-peptide inhibit"}, {"measurement": "mean ± standard error tumor size", "setting": "human rhabdomyosarcoma [2]; after 24 days of observation, 25 mg/kg daily i.p. for 8 days, saline control 26.6±6.8, p<0.003", "value": "5.0±1.6", "unit": "mm^2"}, {"measurement": "tumor size", "setting": "human rhabdomyosarcoma [2]; after three weeks, 25 mg/kg daily i.p. for eight days, saline control 26.6±6.8, p<0.003", "value": "5.4±1.6", "unit": "mm^2"}, {"measurement": "body weight and signs of illness", "setting": "[3]", "value": "did not lose weight or show any other signs of major illness"}, {"measurement": "tolerability", "setting": "[3]", "value": "tolerated the peptide well"}, {"measurement": "solubility in water", "setting": "water solubility", "value": "water-soluble"}]}
{"substance": "YRSRKYSSWYVALKR [antero-peptide, NH2 --YRSRK--YSSWY--VALKR--COOH, reference compound]", "values": [{"measurement": "inhibition in growth assay with human SW-13 cells", "setting": "human SW-13 cells; FIG. 2", "value": "inhibitory"}, {"measurement": "potency in FGF-stimulated SW-13 colony formation relative to the retro-peptide", "setting": "SW-13 cells; antero-peptide versus retro-peptide", "value": "significantly less potent"}, {"measurement": "inhibition of cell lines growing independently from FGF", "setting": "breast cancer cells", "value": "neither of the antero-peptide nor retro-peptide inhibit"}]}
{"substance": "pentosanpolysulfate [reference compound]", "values": [{"measurement": "action on tumor size", "setting": "human rhabdomyosarcoma [2]; 25 mg/kg daily i.p. throughout the observation period, p<0.05", "value": "significant"}]}
